Assay results from patent US11220524B2, “Selective inhibitors of protein arginine methyltransferase 5 (PRMT5)” (PRELUDE THERAPEUTICS, INCORPORATED, priority 2017, dated 2022).
Where a name gives a salt, the structure may show the parent alone.

What follows are compounds tested against PRMT5/MEP50 complex (Homo sapiens (Human), UniProt O14744) (assay: Biochemical assay: PRMT5/MEP50 methylation of histone H2A with 3H-SAM, filter plate scintillation). Details: biochemical potency; read-out: PRTMT5/MEP50 IC50.
Procedure: Biochemical Assay Protocol
Compounds were solubilized, and 3-fold diluted in 100% DMSO. […] Standard reactions were performed in a total volume of […] assay buffer, with histone H2A (5 μM final) as substrate. To this was added the PRMT5/MEP50 complex diluted to provide a final assay concentration of 5 nM and the compounds were allowed to preincubate for 15 to 20 minutes at room temperature. The reaction was initiated by adding S-[3H-methyl]-adenosyl-L-methionine (PerkinElmer) to final concentration of 1 μM. Following a 60 minutes incubation at 30° C., the reaction was stopped by adding 100 μL of 20% TCA. Each reaction was spotted onto filter plate (MultiScreen FB Filter Plate, Millipore), and washed 5 times with PBS buffer, Scintillation fluid was added to the filter plate and read in a scintillation counter. IC50 values were determined by fitting the data to the standard 4 parameters with Hill Slope using GraphPad Prism software.

Chain of PRMT5/MEP50 complex (O14744 whole entry): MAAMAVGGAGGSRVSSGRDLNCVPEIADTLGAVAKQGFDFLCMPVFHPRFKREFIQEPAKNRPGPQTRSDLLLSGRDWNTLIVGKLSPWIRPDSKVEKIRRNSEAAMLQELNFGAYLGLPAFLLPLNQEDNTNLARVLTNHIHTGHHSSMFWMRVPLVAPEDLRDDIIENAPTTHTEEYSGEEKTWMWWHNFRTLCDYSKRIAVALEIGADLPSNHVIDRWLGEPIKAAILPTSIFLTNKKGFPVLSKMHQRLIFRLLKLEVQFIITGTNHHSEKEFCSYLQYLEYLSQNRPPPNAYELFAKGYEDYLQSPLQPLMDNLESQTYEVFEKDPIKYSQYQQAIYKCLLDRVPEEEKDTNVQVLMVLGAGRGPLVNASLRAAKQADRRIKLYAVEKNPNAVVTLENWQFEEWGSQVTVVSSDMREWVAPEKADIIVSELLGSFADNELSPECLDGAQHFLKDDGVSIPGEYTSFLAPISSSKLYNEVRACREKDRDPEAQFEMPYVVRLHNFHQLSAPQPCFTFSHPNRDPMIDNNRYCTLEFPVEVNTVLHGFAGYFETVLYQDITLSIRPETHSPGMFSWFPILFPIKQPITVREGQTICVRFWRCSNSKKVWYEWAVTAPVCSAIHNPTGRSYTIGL
Chain of PRMT5/MEP50 complex (Q9BQA1 whole entry partner): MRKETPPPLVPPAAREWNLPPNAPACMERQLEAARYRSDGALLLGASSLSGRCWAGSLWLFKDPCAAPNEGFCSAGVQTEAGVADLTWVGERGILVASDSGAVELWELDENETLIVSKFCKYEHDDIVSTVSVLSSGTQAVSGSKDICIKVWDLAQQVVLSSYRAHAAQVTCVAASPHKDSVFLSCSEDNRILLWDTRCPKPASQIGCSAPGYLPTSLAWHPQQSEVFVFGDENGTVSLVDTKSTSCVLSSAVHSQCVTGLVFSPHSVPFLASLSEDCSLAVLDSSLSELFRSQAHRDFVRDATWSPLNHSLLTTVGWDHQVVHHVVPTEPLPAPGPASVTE

Row | IC50 | Structure (SMILES)
1 | 95 nM | CO/N=c1\nc[nH]c2c1ccn2[C@@H]1C[C@H]([C@H](O)c2ccc(F)c(F)c2)[C@@H](O)[C@H]1O [Example 89-B, 7-((1R,2S,3R,4R)-4-((S)-(3,4-difluorophenyl)(hydroxy)methyl)-2,3-dihydroxycyclopentyl)-1,7-dihydro-4H-pyrrolo[2,3-d]pyrimidin-4-one O-methyl oxime]
2 | 1160 nM | N/N=c1/nc[nH]c2c1c(F)cn2[C@@H]1C[C@H]([C@H](O)c2ccc(Cl)cc2)[C@@H](O)[C@H]1O [Example 28-B, 7-[(1R,2S,3R,4R)-4-[(S)-(4-chlorophenyl)-hydroxy-methyl]-2,3-dihydroxy-cyclopentyl]-5-fluoro-H-pyrrolo[2,3-d]pyrimidin-4-one hydrazone hydrochloride]
3 | 37 nM | O/N=c1\nc[nH]c2c1ccn2[C@@H]1C[C@H]([C@H](O)c2ccc(F)c(F)c2)[C@@H](O)[C@H]1O [Example 88-B, 7-((1R,2S,3R,4R)-4-((S)-(3,4-difluorophenyl)(hydroxy)methyl)-2,3-dihydroxycyclopentyl)-1,7-dihydro-4H-pyrrolo[2,3-d]pyrimidin-4-one oxime]
4 | 543 nM | CO/N=c1/nc[nH]c2c1ccn2[C@@H]1C[C@H]([C@H](O)c2ccc(Cl)cc2)[C@@H](O)[C@H]1O [Example 49-B, (1S,2R,3R,5R)-3-[(S)-(4-chlorophenyl)-hydroxy-methyl]-5-[(4Z)-4-methoxyimino-1H-pyrrolo[2,3-d]pyrimidin-7-yl]cyclopentane-1,2-diol hydrochloride]
5 | 2.3 nM | O/N=c1/nc[nH]c2c1ccn2[C@@H]1C[C@H]([C@H](O)c2ccc(Cl)c(Cl)c2)[C@@H](O)[C@H]1O [Example 93-B, 7-((1R,2S,3R,4R)-4-((S)-(3,4-dichlorophenyl)(hydroxy)methyl)-2,3-dihydroxycyclopentyl)-1,7-dihydro-4H-pyrrolo[2,3-d]pyrimidin-4-one oxime]

Same assay, conditions: histone H2A 5 μM, SAM 1 μM, enzyme 5 nM; read-out: PRMT5/MEP50 IC50

Row | IC50 | Structure (SMILES)
6 | 42 nM | CCO/N=c1\nc[nH]c2c1ccn2[C@@H]1O[C@H]([C@H](O)c2ccc(Cl)cc2)[C@@H](O)[C@H]1O [Example 97, 7-((2R,3R,4S,5R)-5-((R)-(4-chlorophenyl)(hydroxy)methyl)-3,4-dihydroxytetrahydrofuran-2-yl)-1,7-dihydro-4H-pyrrolo[2,3-d]pyrimidin-4-one O-ethyl oxime]
7 | 699 nM | CCO/N=c1\[nH]cnc2c1ncn2[C@@H]1O[C@H]([C@](C)(O)c2ccc(Cl)c(C)c2)[C@@H](O)[C@H]1O [Example 95, (2S,3S,4R,5R)-2-[(1R)-1-(4-chloro-3-methylphenyl)-1-hydroxy-ethyl]-5-[(6Z)-6-ethoxyimino-1H-purin-9-yl]tetrahydrofuran-3,4-diol]
8 | 95.4 nM | CO/N=c1\nc[nH]c2c1ccn2[C@@H]1O[C@H]([C@H](O)c2ccc(C(F)(F)F)cc2)[C@@H](O)[C@H]1O [compound 75, 7-((2R,3R,4S,5R)-3,4-dihydroxy-5-((R)-hydroxy(4-(trifluoromethyl)phenyl)methyl)tetrahydrofuran-2-yl)-1,7-dihydro-4H-pyrrolo[2,3-d]pyrimidin-4-one O-methyl oxime]
9 | 75.6 nM | CO/N=c1\nc[nH]c2c1c(F)cn2[C@@H]1OC([C@H](O)c2ccc(Cl)cc2)[C@@H](O)[C@H]1O (stereo partly drawn) [compound 74, 7-((2R,3R,4S)-5-((R)-(4-chlorophenyl)(hydroxy)methyl)-3,4-dihydroxytetrahydrofuran-2-yl)-5-fluoro-1,7-dihydro-4H-pyrrolo[2,3-d]pyrimidin-4-one O-methyl oxime]
10 | 2.7 nM | N/N=c1\nc[nH]c2c1ccn2[C@@H]1O[C@H]([C@H](O)c2ccc(C(F)(F)F)cc2)[C@@H](O)[C@H]1O [compound 76, (2R,3R,4S,5R)-2-((Z)-4-hydrazineylidene-1,4-dihydro-7H-pyrrolo[2,3-d]pyrimidin-7-yl)-5-((R)-hydroxy(4-(trifluoromethyl)phenyl)methyl)tetrahydrofuran-3,4-diol]
11 | 0.2 nM | C[C@@](O)(C1C=C(Cl)C(Cl)=CC1)[C@H]1O[C@@H](n2ccc3/c(=N\O)nc[nH]c32)[C@H](O)[C@@H]1O (stereo partly drawn) [Example 105, 7-((2R,3R,4S,5S)-5-((1R)-1-(3,4-dichlorocyclohexa-2,4-dien-1-yl)-1-hydroxyethyl)-3,4-dihydroxytetrahydrofuran-2-yl)-1,7-dihydro-4H-pyrrolo[2,3-d]pyrimidin-4-one oxime]
12 | 6460 nM | CO/N=c1\nc[nH]c2c1ccn2[C@@H]1OC([C@](O)(c2ccc(Cl)cc2)C(F)(F)F)[C@@H](O)[C@H]1O (stereo partly drawn) [compound 79, 7-((2R,3R,4S)-5-((R)-1-(4-chlorophenyl)-2,2,2-trifluoro-1-hydroxyethyl)-3,4-dihydroxytetrahydrofuran-2-yl)-1,7-dihydro-4H-pyrrolo[2,3-d]pyrimidin-4-one O-methyl oxime]
13 | 10.2 nM | C#Cc1cn([C@@H]2O[C@H]([C@H](O)c3ccc(Cl)c(Cl)c3)[C@@H](O)[C@H]2O)c2[nH]cn/c(=N\OC)c12 [Example 104, 7-((2R,3R,4S,5R)-5-((R)-(3,4-dichlorophenyl)(hydroxy)methyl)-3,4-dihydroxytetrahydrofuran-2-yl)-5-ethynyl-1,5-dihydro-4H-7l4-pyrrolo[2,3-d]pyrimidin-4-one O-methyl oxime]
14 | 113 nM | O[C@@H]1[C@H](O)[C@@H]([C@H](O)c2ccc(Cl)c(Cl)c2)O[C@H]1n1ccc2/c(=N/OCC(F)F)nc[nH]c21 [Example 106, 7-((2R,3R,4S,5R)-5-((R)-(3,4-dichlorophenyl)(hydroxy)methyl)-3,4-dihydroxytetrahydrofuran-2-yl)-1,4a,7,7a-tetrahydro-4H-pyrrolo[2,3-d]pyrimidin-4-one 0-(2,2-difluoroethyl) oxime]
15 | 1620 nM | CO/N=c1\[nH]cnc2c1ncn2[C@@H]1O[C@H]([C@](C)(O)c2ccc(Cl)c(C)c2)[C@@H](O)[C@H]1O [Example 94, (2S,3S,4R,5R)-2-[(1R)-1-(4-chloro-3-methylphenyl)-1-hydroxy-ethyl]-5-[(6Z)-6-methoxyimino-1H-purin-9-yl]tetrahydrofuran-3,4-diol]
16 | 1770 nM | CO/N=c1\nc[nH]c2c1c(CCO)cn2[C@@H]1O[C@H]([C@H](O)c2ccc(Cl)c(Cl)c2)[C@@H](O)[C@H]1O [Example 100, 7-((2R,3R,4S,5R)-5-((R)-(3,4-dichlorophenyl)(hydroxy)methyl)-3,4-dihydroxytetrahydrofuran-2-yl)-5-(2-hydroxyethyl)-1,5-dihydro-4H-7l4-pyrrolo[2,3-d]pyrimidin-4-one O-methyl oxime]
17 | 28 nM | CO/N=c1\nc[nH]c2c1c(F)cn2[C@@H]1O[C@H]([C@](C)(O)c2ccc(Cl)c(Cl)c2)[C@@H](O)[C@H]1O [Example 107, 7-((2R,3R,4S,5S)-5-((R)-1-(3,4-dichlorophenyl)-1-hydroxyethyl)-3,4-dihydroxytetrahydrofuran-2-yl)-5-fluoro-1,7-dihydro-4H-pyrrolo[2,3-d]pyrimidin-4-one O-methyl oxime]
18 | 920 nM | CCO/N=c1\[nH]cnc2c1ncn2[C@@H]1O[C@H]([C@](C)(O)c2ccc(Cl)c(Cl)c2)[C@@H](O)[C@H]1O [Example 93, (2S,3S,4R,5R)-2-[(1R)-Example 931-(3,4-dichlorophenyl)-1-hydroxy-ethyl]-5-[(6Z)-6-ethoxyimino-1H-purin-9-yl]tetrahydrofuran-3,4-diol]
19 | 526 nM | CO/N=c1/nc[nH]c2c1ncn2[C@@H]1O[C@H]([C@H](O)c2ccc(Cl)cc2)[C@@H](O)[C@H]1O [compound 53, (2R,3S,4R,5R)-2-[(R)-(4-chlorophenyl)-hydroxy-methyl]-5-[6-methoxyimino-3H-purin-9-yl]tetrahydrofuran-3,4-diol trifluoroacetic Acid Salt]
20 | 180 nM | N/N=c1/nc[nH]c2c1ncn2[C@@H]1O[C@H]([C@H](O)c2ccc(Cl)cc2)[C@@H](O)[C@H]1O [compound 39, (2R,3S,4R,5R)-2-[(R)-(4-chlorophenyl)-hydroxy-methyl]-5-(6-hydrazinopurin-9-yl) tetrahydrofuran-3,4-diol]
21 | 308 nM | C#Cc1cn([C@@H]2O[C@H]([C@H](O)c3ccc(Cl)cc3)[C@@H](O)[C@H]2O)c2[nH]cn/c(=N\OC)c12 [Example 101, 7-((2R,3R,4S,5R)-5-((R)-(4-chlorophenyl)(hydroxy)methyl)-3,4-dihydroxytetrahydrofuran-2-yl)-5-ethynyl-1,7-dihydro-4H-pyrrolo[2,3-d]pyrimidin-4-one O-methyl oxime]
22 | 118 nM | Cc1cn([C@@H]2O[C@H]([C@H](O)c3ccc(Cl)cc3)[C@@H](O)[C@H]2O)c2[nH]cn/c(=N\O)c12 [compound 77, 7-((2R,3R,4S,5R)-5-((R)-(4-chlorophenyl)(hydroxy)methyl)-3,4-dihydroxytetrahydrofuran-2-yl)-5-methyl-1,7-dihydro-4H-pyrrolo[2,3-d]pyrimidin-4-one oxime]
